One assay has as its target human OX2R (Homo sapiens (Human), UniProt O43614). The assay can be described thus: Measurement of antagonistic activity against orexin receptors (intracellular calcium, CHOOX2R cells). The assay is classed as cell-based. How it is done:
(§1) The Chinese hamster ovary (CHO) cell lines CHOOX1R and CHOOX2R were established by modifying CHO cells to constantly express the NFAT-luciferase gene and either the human OX1R or human OX2R gene. Those cells were plated at 10,000 cells/well in 96-well multiplates with DMEM (manufactured by Sigma-Aldrich Co. LLC) supplemented with 5% FBS (manufactured by Thermo Scientific Inc.) and incubated at 37° C. and 5% CO2 for 48 hours. After removal of the medium, 100 μL of an assay buffer (20 mM HEPES (manufactured by Sigma-Aldrich Co. LLC), Hank's balanced salt solution (manufactured by Gibco), 0.1% BSA (manufactured by Sigma-Aldrich Co. LLC), 2.5 mM probenecid acid (manufactured by Wako Pure Chemical Industries, Ltd.), pH 7.4) containing 5 μM Fura-2AM (manufactured by Cayman Chemical Co.) was added to each well, and incubated at 37° C. and 5% CO2 for 60 minutes. After removal of the buffer containing Fura-2AM, 75 μL of the assay buffer was added to each well. Then, […] of the assay buffer containing a test compound at various concentrations and OX-A (manufactured by Peptide Institute, Inc.) was added to start the reaction. The change in intracellular calcium ion concentration induced by the reaction was evaluated by the ratio of fluorescent intensities, which were measured at a wavelength of 510 nm based on the two wavelength excitation approach using FDSS 7000 (manufactured by Hamamatsu Photonics K.K.) with fluorescence excitation at 340 nm and 380 nm. A concentration-response curve on the antagonistic activity was plotted from the values of maximal fluorescent intensity ratio determined when various concentrations of a test compound were added in the presence of […] of OX-A, where a value of maximal fluorescent intensity ratio determined by adding 300 pM of OX-A alone corresponds to 100% and a value of maximal fluorescent intensity ratio determined by adding the assay buffer alone corresponds to 0%. Based on the resulting non-linear regression curve, the 50% maximal inhibitory concentration (IC50) was calculated. Each test compound was dissolved in DMSO to a concentration of 10 mM (the final concentration of DMSO was 1%), and then diluted with the assay buffer to give a final concentration of 3.0×10^−10 M to 1.0×10^−5 M (a common ratio of 3), while OX-A was diluted to a final concentration of 300 pM. The experiment was performed in quadruplicate plates, and the results of the four independent measurements were averaged to give the value of each reaction, and then the IC50 of a sample was calculated. If the sample number was 2 or more, the averaged IC50 was used.
In general terms: Calcium assays in cells follow changes in intracellular calcium, usually with a dye or a luminescent sensor.

The target of the next assay is human OX1R (Homo sapiens (Human), UniProt O43613). The assay can be described thus: Measurement of antagonistic activity against orexin receptors (intracellular calcium, CHOOX1R cells). The assay is classed as cell-based. The note with it: for antagonistic activity against human OX1 receptor (in words): summary of Table 6. How it is done:
as §1

Setting [1] is: CHOOX2R cells, 300 pM OX-A, Fura-2 calcium, read-out: OX2 (IC50).
[2] abbreviates: CHOOX1R cells, 300 pM OX-A, Fura-2 calcium, read-out: OX1 (IC50).

Where two headings read alike, the source gives them in different places.

Sequence of human OX1R (O43613 whole entry): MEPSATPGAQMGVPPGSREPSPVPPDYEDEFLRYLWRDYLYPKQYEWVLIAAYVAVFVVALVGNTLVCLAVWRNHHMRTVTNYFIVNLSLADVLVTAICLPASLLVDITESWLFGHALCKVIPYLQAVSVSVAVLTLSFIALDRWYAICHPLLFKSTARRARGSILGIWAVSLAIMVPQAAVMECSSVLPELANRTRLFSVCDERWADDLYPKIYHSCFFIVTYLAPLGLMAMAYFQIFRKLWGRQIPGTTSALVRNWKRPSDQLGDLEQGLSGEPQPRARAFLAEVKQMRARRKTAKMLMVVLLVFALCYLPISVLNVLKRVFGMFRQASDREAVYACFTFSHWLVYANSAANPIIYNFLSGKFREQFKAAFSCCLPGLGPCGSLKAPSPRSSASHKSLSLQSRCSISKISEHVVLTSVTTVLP
Sequence of human OX2R (O43614 whole entry): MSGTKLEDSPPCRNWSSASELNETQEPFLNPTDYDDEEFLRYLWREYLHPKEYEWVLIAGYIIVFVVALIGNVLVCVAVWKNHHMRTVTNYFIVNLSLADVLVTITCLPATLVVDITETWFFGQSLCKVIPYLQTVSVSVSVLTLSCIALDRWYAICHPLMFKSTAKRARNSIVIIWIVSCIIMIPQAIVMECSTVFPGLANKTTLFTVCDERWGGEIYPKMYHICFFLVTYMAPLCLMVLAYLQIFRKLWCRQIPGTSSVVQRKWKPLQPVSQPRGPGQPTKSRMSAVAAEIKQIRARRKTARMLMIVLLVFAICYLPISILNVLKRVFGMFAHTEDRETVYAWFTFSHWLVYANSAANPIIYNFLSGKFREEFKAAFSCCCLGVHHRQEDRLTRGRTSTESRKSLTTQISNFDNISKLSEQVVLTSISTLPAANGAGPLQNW

For `CN(C(=O)/C=C/c1ccoc1)[C@@H]1CC[C@@]2(O)[C@H]3Cc4ccc(O)c5c4[C@@]2(CCN3CC2CC2)[C@H]1O5.Cl` [Comparative Example 1, (E)-N-[(4R,4aS,7R,7aR,12bS)-3-(cyclopropylmethyl)-4a,9-dihydroxy-2,3,4,4a,5,6,7,7a-octahydro-1H-4,12-methanobenzofuro[3,2-e]isoquinolin-7-yl]-3-(furan-3-yl)-N-methylacrylamide hydrochloride, reference compound], the IC50 – broadly, the concentration that inhibits the measured activity by half – at human OX2R (setting [1]) was over 10 µM; at human OX1R (setting [2]), 1650 nM. Besides, the “antagonistic activity against human OX1 receptor (in words)” value (shortened to “antagonistic activity”) on human OX1R is reported as “very weak antagonistic activity”.
For `COc1ccc2c3c1O[C@H]1[C@H](N(C)Cc4ccccc4)CC[C@@]4(O)[C@@H](C2)N(C(=O)OC(C)(C)C)CC[C@]314` [Comparative Example 2, tert-butyl(4R,4aS,7R,7aR,12bS)-7-[benzyl(methyl)amino]-4a-hydroxy-9-methoxy-1,2,4,4a,5,6,7,7a-octahydro-3H-4,12-methanobenzofuro[3,2-e]isoquinolin-3-carboxylate, reference compound], in that order: over 10 µM, 2850 nM and “very weak antagonistic activity”.
With `COc1ccc2c3c1O[C@H]1[C@H](N(C)C(=O)/C=C/c4ccoc4)CC[C@@]4(O)[C@@H](C2)N(S(=O)(=O)c2ccccc2)CC[C@]314` [Example 1, (E)-3-(furan-3-yl)-N-[(4R,4aS,7R,7aR,12bS)-4a-hydroxy-9-methoxy-3-(phenylsulfonyl)-2,3,4,4a,5,6,7,7a-octahydro-1H-4,12-methanobenzofuro[3,2-e]isoquinolin-7-yl]-N-methylacrylamide], the IC50 at human OX2R is over 10 µM. Besides, on human OX1R, the IC50 worked out at 82.8 nM; the “antagonistic activity” value is “potent and selective antagonistic activity”.
With `COc1ccc2c3c1O[C@H]1[C@H](N(C)C(=O)/C=C/c4ccoc4)CC[C@@]4(O)[C@@H](C2)N(S(=O)(=O)c2ccccc2C)CC[C@]314` [Example 2], the results for the IC50 at human OX2R (setting [1]) and on human OX1R (setting [2]) were over 10 µM and 30 nM, respectively. The “antagonistic activity” value at human OX1R was “potent and selective antagonistic activity”.
Take `COc1ccc2c3c1O[C@H]1[C@H](N(C)C(=O)/C=C/c4ccoc4)CC[C@@]4(O)[C@@H](C2)N(S(=O)(=O)c2cccc(C)c2)CC[C@]314` [Example 3]: the values for the IC50 on human OX2R (setting [1]) and at human OX1R (setting [2]) were over 10 µM and 24 nM, respectively. The “antagonistic activity” value on human OX1R was “potent and selective antagonistic activity”.
Regarding `COc1ccc2c3c1O[C@H]1[C@H](N(C)C(=O)/C=C/c4ccoc4)CC[C@@]4(O)[C@@H](C2)N(S(=O)(=O)c2ccc(C)cc2)CC[C@]314` [Example 4], the IC50 was over 10 µM at human OX2R (setting [1]) and 162 nM on human OX1R (setting [2]). The “antagonistic activity” value at human OX1R was “potent and selective antagonistic activity”.
Take `COc1ccc2c3c1O[C@H]1[C@H](N(C)C(=O)/C=C/c4ccoc4)CC[C@@]4(O)[C@@H](C2)N(S(=O)(=O)c2ccccc2C(F)(F)F)CC[C@]314` [Example 5]: the IC50 at human OX2R (setting [1]) is over 10 µM; on human OX1R (setting [2]), 419 nM. Also, the “antagonistic activity” value on human OX1R is “potent and selective antagonistic activity”.
For the compound `COc1ccc2c3c1O[C@H]1[C@H](N(C)C(=O)/C=C/c4ccoc4)CC[C@@]4(O)[C@@H](C2)N(S(=O)(=O)c2ccccc2[N+](=O)[O-])CC[C@]314` [Example 8], the IC50 on human OX2R (setting [1]) is over 10 µM; at human OX1R (setting [2]) it was 144 nM. For the same compound, the “antagonistic activity” value at human OX1R is “potent and selective antagonistic activity”.
On to `COc1ccc2c3c1O[C@H]1[C@H](N(C)C(=O)/C=C/c4ccoc4)CC[C@@]4(O)[C@@H](C2)N(S(=O)(=O)c2ccccc2C#N)CC[C@]314` [Example 11], for which the IC50 on human OX2R (setting [1]) was over 10 µM; on human OX1R (setting [2]), 49.1 nM. In addition, the “antagonistic activity” value at human OX1R was “potent and selective antagonistic activity”.
As to `COc1ccc2c3c1O[C@H]1[C@H](N(C)C(=O)/C=C/c4ccoc4)CC[C@@]4(O)[C@@H](C2)N(S(=O)(=O)c2cccc(F)c2)CC[C@]314` [Example 15], the results for the IC50 on human OX2R (setting [1]) and at human OX1R (setting [2]) were over 10 µM and 112 nM, respectively. For the same compound, the “antagonistic activity” value at human OX1R was “potent and selective antagonistic activity”.
On to `COc1ccc2c3c1O[C@H]1[C@H](N(C)C(=O)/C=C/c4ccoc4)CC[C@@]4(O)[C@@H](C2)N(S(=O)(=O)c2cccc(Cl)c2)CC[C@]314` [Example 18], for which the IC50 was over 10 µM on human OX2R (setting [1]) and 195 nM at human OX1R (setting [2]). Moreover, the “antagonistic activity” value on human OX1R is “potent and selective antagonistic activity”.
As for `COc1ccc2c3c1O[C@H]1[C@H](N(C)C(=O)/C=C/c4ccoc4)CC[C@@]4(O)[C@@H](C2)N(S(=O)(=O)c2ccccc2Br)CC[C@]314` [Example 20], the results for the IC50 at human OX2R (setting [1]) and at human OX1R (setting [2]) were over 10 µM and 56.2 nM, respectively. At human OX1R, the “antagonistic activity” value was “potent and selective antagonistic activity”.
For the compound `COc1ccc2c3c1O[C@H]1[C@H](N(C)C(=O)/C=C/c4ccoc4)CC[C@@]4(O)[C@@H](C2)N(S(=O)(=O)c2cccc(Br)c2)CC[C@]314` [Example 21], the IC50 at human OX2R (setting [1]) was over 10 µM; on human OX1R (setting [2]) it was 200 nM. On human OX1R, the “antagonistic activity” value is “potent and selective antagonistic activity”.
For the compound `COc1ccc2c3c1O[C@H]1[C@H](N(C)C(=O)/C=C/c4ccoc4)CC[C@@]4(O)[C@@H](C2)N(S(=O)(=O)c2c(C)cc(C)cc2C)CC[C@]314` [Example 23], the IC50 was over 10 µM on human OX2R (setting [1]) and 121 nM on human OX1R (setting [2]). Besides, the “antagonistic activity” value on human OX1R is “potent and selective antagonistic activity”.
On to `COc1ccc2c3c1O[C@H]1[C@H](N(C)C(=O)/C=C/c4ccoc4)CC[C@@]4(O)[C@@H](C2)N(S(=O)(=O)c2cccc5cccnc25)CC[C@]314` [Example 25], for which the IC50 is over 10 µM on human OX2R (setting [1]) and 198 nM on human OX1R (setting [2]). Moreover, the “antagonistic activity” value on human OX1R was “potent and selective antagonistic activity”.
With `CCCCS(=O)(=O)N1CC[C@]23c4c5ccc(OC)c4O[C@H]2[C@H](N(C)C(=O)/C=C/c2ccoc2)CC[C@@]3(O)[C@H]1C5` [Example 27], the values for the IC50 at human OX2R (setting [1]) and at human OX1R (setting [2]) were over 10 µM and 87.8 nM, respectively. For the same compound, the “antagonistic activity” value on human OX1R was “potent and selective antagonistic activity”.
`COc1ccc2c3c1O[C@H]1[C@H](N(C)C(=O)/C=C/c4ccoc4)CC[C@@]4(O)[C@@H](C2)N(S(=O)(=O)C2CC2)CC[C@]314` [Example 28]: the IC50 is over 10 µM at human OX2R (setting [1]) and 101 nM at human OX1R (setting [2]). The “antagonistic activity” value on human OX1R is “potent and selective antagonistic activity”.
In the case of `COc1ccc2c3c1O[C@H]1[C@H](N(C)C(=O)/C=C/c4ccoc4)CC[C@@]4(O)[C@@H](C2)N(S(=O)(=O)c2ccc(N(C)C)cc2)CC[C@]314.Cl` [Example 32], the IC50 on human OX2R (setting [1]) is over 10 µM; on human OX1R (setting [2]), 11.7 nM. Moreover, the “antagonistic activity” value at human OX1R is “potent and selective antagonistic activity”.
For `COc1ccc2c3c1O[C@H]1[C@H](N(C)C(=O)/C=C/c4ccoc4)CC[C@@]4(O)[C@@H](C2)N(C(=O)C2CC2)CC[C@]314` [Example 34], the IC50 on human OX2R (setting [1]) was over 10 µM; on human OX1R (setting [2]) it was 259 nM. Also, the “antagonistic activity” value at human OX1R is “potent and selective antagonistic activity”.
In the case of `COc1ccc2c3c1O[C@H]1[C@H](N(C)C(=O)/C=C/c4ccoc4)CC[C@@]4(O)[C@@H](C2)N(C(=O)c2ccc(C)cc2)CC[C@]314` [Example 35], the IC50 at human OX2R (setting [1]) is over 10 µM; on human OX1R (setting [2]) it was 571 nM. On human OX1R, the “antagonistic activity” value was “potent and selective antagonistic activity”.
Consider `COc1ccc2c3c1O[C@H]1[C@H](N(C)C(=O)C=Cc4ccccc4)CC[C@@]4(O)[C@@H](C2)N(S(=O)(=O)c2ccccc2)CC[C@]314` [Example 38, N-[(4R,4aS,7R,7aR,12bS)-4a-hydroxy-9-methoxy-3-(phenylsulfonyl)-2,3,4,4a,5,6,7,7a-octahydro-1H-4,12-methanobenzofuro[3,2-e]isoquinolin-7-yl]-N-methylcinnamide], for which the values for the IC50 on human OX2R (setting [1]) and on human OX1R (setting [2]) were over 10 µM and 128 nM, respectively. The “antagonistic activity” value on human OX1R is “potent and selective antagonistic activity”.

The values above are taken from US10377763B2, “Morphinan derivative and medical usage thereof” (UNIVERSITY OF TSUKUBA, priority 2015, dated 2019).
